Target: LSD1 (Homo sapiens, UniProt O60341)
Assay: LSD1 enzymatic assay
Format: biochemical
Conditions: for inhibition at 1 µM: read-out: Inhibition rate (%) at 1 μmol/L against LSD1

IC50 [nM] | fold stronger LSD1 inhibitory activity than compound 14a | inhibition at 1 µM [%] | SMILES
> 125000 | – | – | Cc1ccc(Nc2nc(SCC(=O)NC(=O)Nc3ccccn3)nc(-c3ccc(C(C)C)cc3)c2C#N)cc1 [Compound 16b]
> 64000 | – | – | C#CCSc1nc(Nc2ccc(C)cc2)c(C#N)c(-c2ccccc2)n1 [Compound 7f]
531 ± 2 | about 3.5 fold | 91.4 | Cc1ccc(Nc2nc(SCc3cn(CC(=O)NC(=O)Nc4ccccn4)nn3)nc(-c3ccc(Cl)cc3)c2C#N)cc1 [Compound 14c]
6310 ± 719 | – | – | N#Cc1c(Nc2cccc(Cl)c2)nc(SCc2cn(Cc3ccccc3Cl)nn2)nc1-c1ccccc1 [Compound 10c]
232 ± 2 | – | – | Cc1ccc(-c2nc(SCc3cn(CC(=O)NC(=O)Nc4ccccn4)nn3)nc(Nc3cccc(Cl)c3)c2C#N)cc1 [Compound 14p]
3820 ± 582 | – | 46.3 | Cc1ccc(Nc2nc(SCc3cn(CC(=O)NC(=O)Nc4ccccn4)nn3)nc(-c3ccc(Br)cc3)c2C#N)cc1 [Compound 14d]
628 ± 27 | – | – | N#Cc1c(Nc2ccc(Cl)cc2)nc(SCc2cn(Cc3ccccc3Cl)nn2)nc1-c1ccccc1 [Compound 10b]
